Patent publication US7915291B2, “Hepatitis C virus inhibitors” (Bristol-Myers Squibb Company, priority 2002, dated 2011)
Where two headings read alike, the source gives them in different places.

Key:
HCV = conditions: cited from earlier work
[1] = tested on: HCV replicon in Huh7 cells; assay: HCV replicon cell-based assay; parameters: species or system HCV strain 1B; conditions: Hepatitis C virus, Huh-7; HCV replicon, Huh7 cells; read-out: EC50 range
[2] = molecular target: HCV NS3/4A protease complex, BMS strain (UniProt P27958, C1454S/C1711G, species not given/STRAIN_BMS); assay: Recombinant HCV NS3/4A protease complex FRET peptide assay (BMS strain); assay type: biochemical, HCV genotype 1a
Method in brief: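 Percent inhibition taken from the linear-range fluorescence slope relative to uninhibited control, read kinetically for about 15 min at 25° C. Enzyme (2-3 nM, BMS NS3/4A complex, lysine-tailed, Ni-NTA purified) met compound for 1 min before 2 μM FRET depsipeptide substrate started cleavage.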

[3] = NS3/4A BMS strain; read-out: IC50 range

**Q.** Which “sustained efficacy, share of patients” value (HCV; HCV infected patients, combination therapy) does the source give for alpha-interferon and ribavirin here?
**A.** The value was 40%.

**Q.** Which results are given for `C=C[C@@H]1C[C@]1(NC(=O)[C@@H]1C[C@@H](Oc2nccc3c(C)cccc23)CN1C(=O)[C@@H](NC(=O)OC(C)(C)C)C(C)(C)C)C(=O)NS(=O)(=O)C1CC1` [Compound 252]?
**A.** EC50 [1]: < 100 nM; IC50 [2, 3]: < 100 nM

**Q.** Which results are given for `CC[C@@H]1C[C@]1(NC(=O)[C@@H]1C[C@@H](Oc2nccc3c(F)c(OC)ccc23)CN1C(=O)[C@@H](NC(=O)OC(C)(C)C)C(C)(C)C)C(=O)NS(=O)(=O)C1CC1` [Compound 299]?
**A.** EC50 [1]: 100 to 1000 nM; IC50 [2, 3]: < 100 nM

**Q.** With `C=CC1C[C@]1(NC(=O)[C@@H]1C[C@@H](Oc2nnc(OCC)c3ccccc23)CN1C(=O)[C@@H](NC(=O)OC(C)(C)C)C(C)(C)C)C(=O)NS(=O)(=O)C1CC1` (stereo partly drawn) [Compound 200, BOCNH-P3(L-t-BuGly)-P2-[(4R)-(4-ethoxyphthalazine-1-oxo)-S-proline]-P1(1R,2S VinylAcca)-CONHSO2Cyclopropane] as the compound, how does the EC50 [1] read?
**A.** Its EC50 is < 100 nM.

**Q.** What about the IC50 [2, 3] of the same compound?
**A.** The IC50 was < 100 nM.

**Q.** Which EC50 [1] does the source give for `C=CC1C[C@]1(NC(=O)[C@@H]1C[C@@H](Oc2ccc3c(Cl)nccc3c2SCCC)CN1C(=O)[C@@H](NC(=O)OC(C)(C)C)C(C)(C)C)C(=O)NS(=O)(=O)C1CC1` (stereo partly drawn) [Compound 204, BOCNH-P3(L-t-BuGly)-P2[(4R)-(1-Chloro-5propylthio -isoquinolin-6-oxo)-S-proline]-P1(1R,2S VinylAcca)-CONHSO2Cyclopropane] here?
**A.** Its EC50 is 100 to 1000 nM.

**Q.** And the IC50 [2, 3]?
**A.** Its IC50 is < 100 nM.

**Q.** With `C=C[C@@H]1C[C@]1(NC(=O)[C@@H]1C[C@@H](Oc2nccc3cc(OC)ccc23)CN1C(=O)[C@@H](NC(=O)OC1CCCC1)[C@H](C)OC)C(=O)NS(=O)(=O)C1CC1` [Compound 104] as the compound, how does the EC50 [1] read?
**A.** The EC50 was < 100 nM.

**Q.** And the IC50 ([2]; read-out: IC50 range; NS3/4A BMS strain)?
**A.** The IC50 was < 100 nM.

**Q.** For `C=C[C@@H]1C[C@]1(NC(=O)[C@@H]1C[C@@H](Oc2nccc3cc(OC)ccc23)CN1C(=O)[C@@H](NC(=O)NC(C)(C)C)C(C)(C)C)C(=O)NS(=O)(=O)C1CCC1` [Compound 383], which EC50 [1] is on record?
**A.** The EC50 was < 100 nM.

**Q.** What about the IC50 [2, 3] of the same compound?
**A.** The IC50 was < 100 nM.

**Q.** For `C=CC1C[C@]1(NC(=O)[C@@H]1C[C@@H](Oc2nncc3ccccc23)CN1C(=O)[C@@H](NC(=O)OC(C)(C)C)C(C)(C)C)C(=O)NS(=O)(=O)C1CC1` (stereo partly drawn) [Compound 194, BOCNH-P3(L-tert-BuGly)-P2[(4R)-(phthalazine-1-oxo)-S-proline]-P1(1R,2S Vinyl Acca)-CONHSO2-Cyclopropane], which EC50 [1] is on record?
**A.** Its EC50 is 100 to 1000 nM.

**Q.** What about the IC50 [2, 3] of the same compound?
**A.** Its IC50 is < 100 nM.

**Q.** With `C=CC1C[C@]1(NC(=O)[C@@H]1C[C@@H](Oc2nc(-c3ccncc3)cc3cc(OC)ccc23)CN1C(=O)[C@@H](NC(=O)OC(C)(C)C)C(C)(C)C)C(=O)NS(=O)(=O)C1CC1` (stereo partly drawn) [Compound 325] as the compound, how does the EC50 [1] read?
**A.** The EC50 was < 100 nM.

**Q.** What about the IC50 [2, 3] of the same compound?
**A.** Its IC50 is < 100 nM.

**Q.** With pegylated alpha-interferon as the compound, how does the “clinical comparison as monotherapy” value (HCV; HCV patients, monotherapy, recent clinical results) read?
**A.** The value was “superior to unmodified alpha-interferon”.
